Results published in patent US4883814A, “1-aryloxy-3-(substituted alkylamino)-2-propanols and use as β-blocker” (Merck & Co., Inc., priority 1988, dated 1989).

What was measured:
[1] = biological target: T1, β1 -receptor (Cavia porcellus, UniProt H0W3H1); experiment: inhibition of the positive chronotropic actions of isoproterenol in isolated guinea pig atrial preparations; conditions: isolated guinea pig atria; vs isoproterenol positive chronotropic action; read-out: pA2 values β1 (atria) (converted)
T1 construct: isolated guinea pig atrial preparations; from tissue; host or cells: isolated guinea pig atria
T1 sequence (H0W3H1 1-470): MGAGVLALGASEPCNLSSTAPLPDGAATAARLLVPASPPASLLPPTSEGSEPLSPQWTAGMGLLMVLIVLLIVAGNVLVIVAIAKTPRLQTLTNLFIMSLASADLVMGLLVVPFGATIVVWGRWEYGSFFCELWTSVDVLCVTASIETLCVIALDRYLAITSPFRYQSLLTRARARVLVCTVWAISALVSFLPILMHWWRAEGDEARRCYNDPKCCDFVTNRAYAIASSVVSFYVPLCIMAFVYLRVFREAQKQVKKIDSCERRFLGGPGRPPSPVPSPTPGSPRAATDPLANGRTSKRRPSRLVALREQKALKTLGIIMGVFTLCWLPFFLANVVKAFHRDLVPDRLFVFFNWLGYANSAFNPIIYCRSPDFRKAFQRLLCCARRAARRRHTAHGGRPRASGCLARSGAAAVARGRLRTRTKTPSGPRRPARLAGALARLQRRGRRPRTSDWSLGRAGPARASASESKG
Description: (§1) The in vitro β-adrenergic blocking properties of the novel compounds of this invention were evaluated in accordance with standard procedures. The interaction with the β1 -receptor was determined via inhibition of the positive chronotropic actions of isoproterenol in isolated guinea pig atrial preparations. β2 potency was determined by using isolated guinea pig tracheal chains contracted with PGF2α and by measuring inhibition of isoproterenol-induced relaxation.

[2] = system: β1 -receptor; experiment: as above; conditions: β1 (atria) versus β2 (trachea), from pA2 values
Description: as §1

[3] = biological target: T2, β2 (Cavia porcellus, UniProt Q8K4Z4); experiment: inhibition of isoproterenol-induced relaxation in isolated guinea pig tracheal chains contracted with PGF2α; conditions: vs isoproterenol-induced relaxation, read-out: pA2 values β2 (trachea) (converted)
T2 construct: isolated guinea pig tracheal chains; from tissue; host or cells: isolated guinea pig tracheal chains
T2 sequence (Q8K4Z4 whole entry): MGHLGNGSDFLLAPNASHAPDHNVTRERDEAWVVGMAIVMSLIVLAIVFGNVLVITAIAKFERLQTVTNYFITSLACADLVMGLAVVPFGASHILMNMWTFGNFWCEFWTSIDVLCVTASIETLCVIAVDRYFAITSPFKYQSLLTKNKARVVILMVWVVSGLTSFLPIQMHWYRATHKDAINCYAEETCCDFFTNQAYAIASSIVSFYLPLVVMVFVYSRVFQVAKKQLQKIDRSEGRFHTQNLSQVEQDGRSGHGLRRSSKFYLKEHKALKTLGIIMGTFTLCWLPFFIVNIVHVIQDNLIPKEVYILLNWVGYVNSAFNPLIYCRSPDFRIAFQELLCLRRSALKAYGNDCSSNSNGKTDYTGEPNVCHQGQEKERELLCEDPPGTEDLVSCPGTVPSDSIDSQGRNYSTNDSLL
Description: as §1

Row | Kb [1] | Kb [3] | SMILES | Cardioselectivity ratio [2]
1 | 23.4 nM | 138 nM | N#Cc1ccccc1OCC(O)CNCCN1CCOCC1 (stereo not shown) | 5.9
2 | 34.7 nM | 34700 nM | N#Cc1ccccc1OCC(O)CNCCN1CCNCC1 (stereo not shown) | 1000
3 | 15.5 nM | 89.1 nM | N#Cc1ccccc1OCC(O)CNCCc1cccnc1 (stereo not shown) | 5.8

More lines, now with the values behind:

Row | SMILES | Kb [1] | Kb [3] | Cardioselectivity ratio [2]
4 | N#Cc1ccccc1OCC(O)CNCCc1ccncc1 (stereo not shown) |  |  | 4.1
5 | N#Cc1ccccc1OCC(O)CNCCc1ccccn1 (stereo not shown) | 25.7 nM | 64.6 nM | 2.5
